Laboratory results published in patent US20230242474A1, “LIPID COMPOUND AND THE COMPOSITION THEREOF” (GUANGZHOU RIBOBIO CO., LTD, priority 2020, published 2023).
“And” between values parts separate entries of the source, which are not always exact repeats. Equal values may be shown once. Read-outs that look alike come from different tables or passages of the source.

What was measured:
[1] = system: S protein specific IgG antibody; format: in vivo, BALB/c mice; details: 14 days after the second immunization, LNP with S protein mRNA, FIG. 5
[2] = system: T lymphocytes secreting INFγ; assay: ELISPOT count of T lymphocytes secreting INFγ after immunization with LNP-encapsulated SARS-CoV-2 S protein mRNA; format: in vivo, BALB/c mice; details: S protein (1 μg) stimulation, intramuscular Day 0 and Day 14, spleens after 7 days
[3] = format: physicochemical
BALB/c mice = assay: Transfection efficiency: in vivo bioluminescence of luciferase mRNA encapsulated by different LNP; details: for Average fluorescence intensity, Leg (intramuscular injection) / Average fluorescence intensity, Liver (tail vein injection): 10 μg/mice; for Total photons number, Leg: intramuscular injection
Method: All animals were kept in adaptive feeding for more than 7 days before experiments, free to uptake food and drink water during experimental period, illumination 12/12 h alternating light and dark, room temperature was 20-26° C., humidity was 40-70%.
Experimental method: female BALB/c mice, encapsulated luciferase mRNA with different LNP by four different administrations which included subcutaneous injection (under the armpit), tail vein injection, intraperitoneal injection, intramuscular injection (the tibialis anterior muscle of mouse hind leg); 3, 6, 24, 48 h after administration, applied in vivo fluorescence imaging system (brand: Bruker, model: XTREME) for bioluminescence detection, the specific steps were as follows: substrate preparation: took appropriate amount of substrate Luciferin (brand: Promega) and added saline to make a 10 mg/ml solution, avoided light, injected 100 μl solution into each mouse intraperitoneally. […] Put the anesthetized mouse into machine, set the bioluminescence setting and took the photos, captured the photograph and then adjusted the upper and lower values of photograph, then collected data on the concentrated distribution of fluorescence (e.g., fluorescence intensity, average photons number, and total photons number) and processed data. Statistical analysis: the in vivo imaging outcome were shown in the fluorescence intensity or average of total photons number of different animal in the same tested group, which were used to judge whether the fluorescence intensity or total photon number of luciferase mRNA encapsulated by different LNP were high or low.
The fluorescence intensity and total photons number reflects the transfection efficiency of LNP, the value is higher, referring to the efficiency of delivering encapsulated substance into cell by LNP is higher.

[4] = LNP with SARS-CoV-2 S protein mRNA, Table 9
[5] = lipid nanoparticle of the ionizable lipid (ionizable lipid/phospholipid/PEG lipid/structural lipid 50/10/1.5/38.5 %) with mRNA, Table 1
[6] = lipid nanoparticle of the ionizable lipid with mRNA, Table 1

Compound | Size (nm) [3, 5] | Encapsulated percentage (%) [3, 6] | PDI [3, 6] | Average fluorescence intensity, Leg (intramuscular injection) (BALB/c mice; 3 h after administration) | Average fluorescence intensity, Liver (tail vein injection) (BALB/c mice; 3 h after administration) | Average fluorescence intensity, Leg (intramuscular injection) (BALB/c mice; 6 h after administration) | Average fluorescence intensity, Liver (tail vein injection) (BALB/c mice; 6 h after administration) | Average fluorescence intensity, Leg (intramuscular injection) (BALB/c mice; 24 h after administration) | Average fluorescence intensity, Liver (tail vein injection) (BALB/c mice; 24 h after administration) | Total photons number, Leg (BALB/c mice; 5 μg/mice, 3 h) | Total photons number, Leg (BALB/c mice; 5 μg/mice, 6 h) | Total photons number, Leg (BALB/c mice; 5 μg/mice, 24 h) | Total photons number, Leg (BALB/c mice; 1 μg/ mice, 6 h) | other results
CCCCC/C=C/C/C=C/CCCCCCCCN(CCCO)CCCCCCCC(=O)OC(CCCCCCCC)CCCCCCCC [A7] | 105.1 nm | 94.63% | 0.175 | 1683.2 | 21013.1 | 2990.1 | 21315.5 | 1436.4 | 444.2 |  |  |  |  | S protein specific IgG antibody titer [1]: higher titers of IgG antibodies; Elispot counted T lymphocytes secreting INFγ ([2]; dose 50 μg): 805 and 700; Encapsulated percentage (%) [3, 4]: 97%; PI [3, 4]: 0.060; Size (nm) [3, 4]: 79 nm
CCCCC/C=C/C/C=C/CCCCCCCCN(CCO)CCCCCCCC(=O)OCC(COCCCCCC)(COCCCCCC)COCCCCCC [A20] | 77.17 nm | 97.09% | 0.121 |  |  |  |  |  |  | 5.99E+08 | 5.65E+08 | 2.03E+08 |  | 
CCCCCCCCCCCOC(=O)CCCCCN(CCO)CCCCCCCC(=O)OC(CCCCCCCC)CCCCCCCC [A33, reference compound] |  |  |  | 1065.5 | 2841.8 | 1117.9 | 3144.6 | 418.8 | 100.0 | 5.20E+08 | 4.62E+08 | 1.63E+08 | 2.35E+08 | S protein specific IgG antibody titer [1]: higher titers of IgG antibodies; Elispot counted T lymphocytes secreting INFγ ([2]; dose 4 μg): 32 and 42; Elispot counted T lymphocytes secreting INFγ ([2]; dose 50 μg): 310 and 338; Encapsulated percentage (%) [3, 4]: 95%; PI [3, 4]: 0.104; Size (nm) [3, 4]: 76 nm; Total photons number, Leg (BALB/c mice; 1 μg/ mice, 3 h): 1.41E+08; Total photons number, Leg (BALB/c mice; 1 μg/ mice, 24 h): 5.84E+07
CCCCCCOCC(COCCCCCC)OC(=O)CCCCCCCN(CCCCCCCC(=O)OC(COCCCCCC)COCCCCCC)CCCNc1c(NC)c(=O)c1=O [A28] | 91.19 nm | 89.72% | 0.13 |  |  |  |  |  |  |  |  |  | 4.26E+08 | Total photons number, Leg (BALB/c mice; 1 μg/ mice, 3 h): 6.50E+08; Total photons number, Leg (BALB/c mice; 1 μg/ mice, 24 h): 1.83E+08
CCCCC/C=C/C/C=C/CCCCCCCCN(CCCO)CCCCCCCC(=O)OCC(COCCCCCC)(COCCCCCC)COCCCCCC [A21] | 78.3 nm | 97.20% | 0.098 |  |  |  |  |  |  | 9.07E+08 | 7.11E+08 | 1.62E+08 |  | 
CCCCC/C=C/C/C=C/CCCCCCCCN(CCO)CCCCCCCC(=O)OC(COCCCCCC)COCCCCCC [A10] | 121.6 nm | 82.65% | 0.104 |  |  |  |  |  |  |  |  |  | 3.17E+09 | 
CCCCC/C=C/C/C=C/CCCCCCCCN(CCO)CCCCCCCC(=O)OC(CCCCCCCC)CCCCCCCC [A8, reference compound] | 142.2 nm | 76.10% | 0.120 | 1111 | 6850.3 | 2161.8 | 10174.4 | 1294.9 | 220.8 |  |  |  |  | 
CCCCCCCCCCCOC(=O)CCCCCN(CCCO)CCCCCCCC(=O)OC(CCCCCCCC)CCCCCCCC [A4, reference compound] | 131.1 nm | 79.24% | 0.110 | 1847.5 | 7962.6 | 1956.2 | 7745.9 | 1009.7 | 326.4 |  |  |  |  | 
CCCCC/C=C/C/C=C/CCCCCCCCN(CCCO)CCCCCC(=O)OCCCCCCCCCCC [A12] | 119.3 nm | 86.53% | 0.083 |  |  |  |  |  |  |  |  |  | 6.91E+08 | 
